“And” between values parts separate entries of the source, which are not always exact repeats. Identical values can stand only once.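 Grown in 96-well plates, cells were treated for 48 hours with each compound at five concentrations. Insufficient inhibition: endpoint recorded as highest concentration tested. GI50 is the concentration that inhibits growth by half. TGI marks complete inhibition of growth.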
Assays:
Experiment in all cases: growth of human tumour cells (NCI), 48 h
HOP-18 NSCLC = system: HOP-18 NSCLC
M19-MEL melanoma = system: M19-MEL melanoma
DLD-1 colon = system: DLD-1 colon
SNB-78 CNS = system: SNB-78 CNS
DMS 114 small cell lung = system: DMS 114 small cell lung
T-47D breast = system: T-47D breast
MDA-N = system: MDA-N
XF 498 CNS = system: XF 498 CNS

Compound	GI50 (T-47D breast)	TGI (T-47D breast)	TGI (MDA-N) [µM]	also measured
COc1ccc(NC(=O)CSc2nnc(-c3ccc(NC(C)=O)cc3)o2)cc1				TGI (HOP-18 NSCLC): 34.9 µM; TGI (M19-MEL melanoma): 55.7 µM; TGI (DLD-1 colon): 41 µM; TGI (SNB-78 CNS): 44 µM; TGI (DMS 114 small cell lung): 19.3 µM
COc1nc(=O)n(C2C=CC(=O)O2)cc1F (configuration not stated)	2.24 µM	7.24 µM		
CCCCCCn1c(-c2ccc(C(=O)O/N=C(\N)c3ccc4c(c3)OCO4)cc2)nc(-c2ccccc2)c1-c1ccccc1	2.03 µM	5.11 µM		
O=C(CNc1ccc(Cl)cc1Cl)Nn1c(-c2ccccc2)nc2ccccc2c1=O		38.5 µM	34.5	
CNc1nc(N)nc(Nc2ccc(I)cc2)c1N=O			> 100	
c1ccc(C2=NOC(c3ccccc3)N2C23CC4CC(CC(C4)C2)C3)cc1 (configuration not stated)		> 10 µM	> 10	
COc1cc2c3c(n(C)c(=O)c2cc1OC)-c1cc2c(cc1C3=O)OCO2		57.3 µM	> 100	
N#CC(I)CS(=O)(=O)c1ccccc1 (configuration not stated)	18.4 µM	42.6 µM		
O=C(CC(=O)Nc1ccccc1)NNC(Sc1ccccc1)c1cc(N=Nc2ccc(Br)cc2)ccc1O (configuration not stated)		> 10 µM	> 10	
O=C(c1ccc([N+](=O)[O-])cc1[N+](=O)[O-])N(/N=C/C=C/c1ccccc1)c1nnc(-c2ccccc2)c(-c2ccccc2)n1				TGI (M19-MEL melanoma): > 100 µM; TGI (DLD-1 colon): > 100 µM; TGI (DMS 114 small cell lung): > 100 µM; TGI (XF 498 CNS): 42.3 µM
NNc1ncnc2nc[nH]c12	3.67 µM	> 100 µM		
COc1cc2c(cc1OCCCN1CCN(CCCOc3cc4c(cc3OC)C(=O)N3CC(F)(F)C[C@H]3C=N4)CC1)N=C[C@@H]1CC(F)(F)CN1C2=O	3.25 µM	36.9 µM		
O=[N+]([O-])c1cccnc1N=Nc1c(O)[nH]c2ccccc12			> 100	
NC(N)=Nc1nc2ccccc2o1	> 100 µM	> 100 µM		
COC(=O)C1=CN(CC2=CC(=O)C(C)=CC2=O)C=C(C(=O)OC)C1c1ccccc1OC	52.8 µM	> 100 µM		
Cc1nc2c(Br)cc(Br)cc2c(=O)n1-c1nnc(-c2cccc(Cl)c2Cl)c(N)n1	55.2 µM	> 100 µM		
CCOc1c(OC)cc(-c2nc3n(n2)C(=O)C(CC)S3)cc1OC (configuration not stated)		> 10 µM	> 10	

Compound	GI50 (T-47D breast)	TGI (T-47D breast)	TGI (MDA-N) [µM]	also measured
CCCCCCCC(=O)OCC1OC(n2cc(F)c(=O)[nH]c2=O)C(N)C(OC(=O)CCCCCCC)C1O (configuration not stated)				TGI (M19-MEL melanoma): 36 µM; TGI (SNB-78 CNS): 39.5 µM
CCC(C)(C)n1c(C)nc2c1C(=O)c1ccccc1C2=O				TGI (M19-MEL melanoma): 31.7 µM; TGI (DLD-1 colon): > 100 µM; TGI (SNB-78 CNS): > 100 µM; TGI (XF 498 CNS): 46.7 µM
O=S(=O)(OI(OI(OS(=O)(=O)C(F)(F)F)c1ccccc1)c1ccccc1)C(F)(F)F				TGI (M19-MEL melanoma): > 100 µM; TGI (DLD-1 colon): > 100 µM; TGI (SNB-78 CNS): > 100 µM; TGI (DMS 114 small cell lung): 55 µM
Nc1c(C(=O)Nc2ccccn2)sc2nc3c(cc12)C(=O)CCC3	4.89 µM	> 100 µM		
Cc1cc(C)nc(NS(=O)(=O)c2ccc(Nc3c4ccccc4nc4c(C(=O)N5CCN(CCO)CC5)cccc34)cc2)n1				TGI (HOP-18 NSCLC): > 100 µM; TGI (M19-MEL melanoma): > 100 µM; TGI (DLD-1 colon): > 100 µM; TGI (SNB-78 CNS): > 100 µM; TGI (DMS 114 small cell lung): > 100 µM; TGI (XF 498 CNS): > 100 µM
COC(=O)c1c2c(c(C)[n+]([O-])c1C)C(=O)C(NCc1ccc(Br)cc1)=CC2=O	1.52 µM	4.06 µM		
CN(C)CCNC(=O)Cc1ccccc1Nc1c(Cl)cccc1Cl				TGI (M19-MEL melanoma): 28.5 µM; TGI (DLD-1 colon): 27.3 µM; TGI (SNB-78 CNS): 38.7 µM; TGI (DMS 114 small cell lung): 33.1 µM
C=C(CN(C)Cc1ccccc1)c1ccc(NC(=O)c2ccc(C(=C)CN(C)Cc3ccccc3)cc2)cc1	20.7 µM	87.4 µM		
O=[N+]([O-])c1ccccc1N=Nc1c(O)[nH]c2c(Cl)cc(Cl)cc12		> 100 µM	> 100	
CCCCCCCCSC1=C(Cl)C(=O)C(OC)=C(OC)C1=O		36.2 µM	17.6	
CCCCOCCOC1=C(Cl)C(=O)c2c(O)ccc(O)c2C1=O		4.07 µM	0.766	
CCn1cc(-c2ccnc3[nH]c(-c4cccc(CN(C)C)c4)cc23)c(-c2ccc(NC(=O)N(C)C)cc2)n1	13.3 µM and > 10 µM	77.3 µM and > 10 µM		
O=C1C/C(Br)=C\c2ccccc2-c2ccccc21				TGI (HOP-18 NSCLC): 16.8 µM; TGI (M19-MEL melanoma): 4.65 µM; TGI (DLD-1 colon): 2.92 µM; TGI (SNB-78 CNS): 16.9 µM; TGI (DMS 114 small cell lung): 6.58 µM; TGI (XF 498 CNS): 3.7 µM
O=c1[nH]c(-c2cccc(F)c2)cc2cc(F)ccc12	> 100 µM	> 100 µM		
CCOC(=O)c1c(C)c2c(n1Cc1ccccc1)CSCC2=O	7.04 µM	45.3 µM		
Nc1c(S(=O)(=O)c2ccc(Cl)cc2)c2nc3ccccc3nc2n2ccnc12				TGI (HOP-18 NSCLC): 79.3 µM; TGI (M19-MEL melanoma): > 100 µM; TGI (DLD-1 colon): > 100 µM; TGI (SNB-78 CNS): > 100 µM; TGI (DMS 114 small cell lung): > 100 µM; TGI (XF 498 CNS): > 100 µM
